4 molecules from ChEMBL document CHEMBL3044669, “Molecular modeling, structure activity relationship and immunomodulatory properties of some lupeol derivatives” (Med Chem Res, 2013) can be followed below.

Structures are written as SMILES. Converted amounts (≈) assume the structure as drawn.

Experiment [1] concerns PBL. As to the kind of experiment: Antiproliferative activity against PHA-induced Homo sapiens (human) peripheral blood lymphocytes assessed as inhibition of [3H]-thymidine incorporation at 50 ug/ml after 72 hr by beta-scintillation counting analysis relative to control. Format: functional.
In experiment [2] the test system is Neutrophil. Put plainly: Immunomodulatory activity in neutrophils assessed as decrease in oxidative burst at 50 ug/mL after 30 min by luminol-enhanced chemiluminescence assay relative to control. On the set-up: scale not given: the % may be the effect or the level left. In kind it is functional.
For experiment [3], the system named is Neutrophil. Put plainly: Immunomodulatory activity in neutrophils assessed as decrease in oxidative burst after 30 min by luminol-enhanced chemiluminescence assay. Particulars: for IC50: 0.5 h. In kind it is functional, cell-based.
The subject of experiment [4] is PBL. As to the kind of experiment: Antiproliferative activity against PHA-induced Homo sapiens (human) peripheral blood lymphocytes assessed as inhibition of [3H]-thymidine incorporation after 72 hr by beta-scintillation counting analysis. Format: functional, cell-based.
The subject of experiment [5] is PBL. As to the kind of experiment: Stimulation of PHA-induced Homo sapiens (human) peripheral blood lymphocytes proliferation assessed as increase in [3H]-thymidine incorporation at 50 ug/ml after 72 hr by beta-scintillation counting analysis relative to control. Format: functional.

By inhibition is commonly meant how much of the control response was suppressed. On to `C=C(C)[C@@H]1CC[C@]2(C)CC[C@]3(C)[C@H](CC[C@@H]4[C@@]5(C)CC[C@H](OC(C)=O)C(C)(C)[C@@H]5CC[C@]43C)[C@@H]12` [LUPENYL ACETATE], for which the inhibition at 50 µg/mL in the experiment on PBL [1] worked out at 38.9%. Besides, in the experiment on Neutrophil [2], the Activity turned out to be 41.12%.

One may read the IC50 as the concentration that inhibits the measured activity by half. For the molecule `C=C(C)[C@@H]1CC[C@]2(C(=O)OCC)CC[C@]3(C)[C@H](CC[C@@H]4[C@@]5(C)CC[C@H](O)C(C)(C)[C@@H]5CC[C@]43C)[C@@H]12` [ETHYL BETULINATE], the IC50 with Neutrophil [3] is 3.85 µg/mL; in the experiment with PBL [4], 12.9 µg/mL (≈ 26.6 µM).

`C=C(C)[C@@H]1CC[C@]2(C(=O)O)CC[C@]3(C)[C@H](CC[C@@H]4[C@@]5(C)CC[C@H](O)C(C)(C)[C@@H]5CC[C@]43C)[C@@H]12` [BETULINIC ACID]: in the experiment with Neutrophil [3], the Activity result was “Dose-dependent effect” and the IC50 was determined as 11.1 µg/mL. Besides, in the experiment on PBL [5], the Activity is listed as 38.2%.

As to `C=C(C)[C@@H]1CC[C@]2(C)CC[C@]3(C)[C@H](CC[C@@H]4[C@@]5(C)CC[C@H](O)C(C)(C)[C@@H]5CC[C@]43C)[C@@H]12` [LUPEOL], in the experiment on Neutrophil [3], the Activity result is “Dose-dependent effect” and the IC50 came out at 11.3 µg/mL. In the experiment with PBL [4], the IC50 was 13.2 µg/mL (≈ 30.8 µM) and the inhibition result is “Dose-dependent effect”.
